Experimental data as given in paper PMC2566858 (Nucleic Acids Research, 2008).

How the values were obtained:
rGyr_fl = rGyr_fl (Thermotoga maritima, UniProt O51934, K106Q/Y851F); experiment: biochemical
rGyr_hel [1] = biological target: rGyr_hel (Thermotoga maritima, UniProt O51934, K106Q); experiment: biochemical
rGyr_hel [2] = biological target: T1, rGyr_hel (Thermotoga maritima, UniProt O51934); experiment: fluorescence equilibrium titration; assay type: binding
T1 sequence (O51934 59-541): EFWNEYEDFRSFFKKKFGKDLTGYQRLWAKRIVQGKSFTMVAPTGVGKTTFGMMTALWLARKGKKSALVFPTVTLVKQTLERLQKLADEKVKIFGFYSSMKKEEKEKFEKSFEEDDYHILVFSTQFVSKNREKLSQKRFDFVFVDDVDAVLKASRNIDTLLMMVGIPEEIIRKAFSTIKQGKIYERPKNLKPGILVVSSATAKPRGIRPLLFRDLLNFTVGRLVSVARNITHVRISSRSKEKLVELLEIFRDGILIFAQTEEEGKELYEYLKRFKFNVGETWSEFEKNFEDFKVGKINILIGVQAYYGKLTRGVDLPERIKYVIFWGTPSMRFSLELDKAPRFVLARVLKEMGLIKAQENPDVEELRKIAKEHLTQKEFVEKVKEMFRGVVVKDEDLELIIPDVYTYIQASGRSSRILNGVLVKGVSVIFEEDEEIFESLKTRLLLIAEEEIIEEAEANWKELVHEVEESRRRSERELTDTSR

Sequence of rGyr_hel (Thermotoga maritima, UniProt O51934, K106Q) (O51934 59-541 K106Q): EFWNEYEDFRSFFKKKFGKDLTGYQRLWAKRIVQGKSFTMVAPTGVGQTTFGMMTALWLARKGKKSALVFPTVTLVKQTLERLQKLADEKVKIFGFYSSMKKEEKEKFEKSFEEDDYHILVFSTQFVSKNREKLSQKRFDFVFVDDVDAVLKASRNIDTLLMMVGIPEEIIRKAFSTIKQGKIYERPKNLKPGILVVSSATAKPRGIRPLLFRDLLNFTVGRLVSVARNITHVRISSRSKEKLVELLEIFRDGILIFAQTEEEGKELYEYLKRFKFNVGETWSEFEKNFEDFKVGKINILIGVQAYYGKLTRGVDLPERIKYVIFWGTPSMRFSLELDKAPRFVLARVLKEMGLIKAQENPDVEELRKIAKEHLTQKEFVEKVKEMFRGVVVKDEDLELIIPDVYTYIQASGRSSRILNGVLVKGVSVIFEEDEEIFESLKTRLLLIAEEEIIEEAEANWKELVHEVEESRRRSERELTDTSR
Sequence of rGyr_fl (O51934 whole entry K106Q/Y851F): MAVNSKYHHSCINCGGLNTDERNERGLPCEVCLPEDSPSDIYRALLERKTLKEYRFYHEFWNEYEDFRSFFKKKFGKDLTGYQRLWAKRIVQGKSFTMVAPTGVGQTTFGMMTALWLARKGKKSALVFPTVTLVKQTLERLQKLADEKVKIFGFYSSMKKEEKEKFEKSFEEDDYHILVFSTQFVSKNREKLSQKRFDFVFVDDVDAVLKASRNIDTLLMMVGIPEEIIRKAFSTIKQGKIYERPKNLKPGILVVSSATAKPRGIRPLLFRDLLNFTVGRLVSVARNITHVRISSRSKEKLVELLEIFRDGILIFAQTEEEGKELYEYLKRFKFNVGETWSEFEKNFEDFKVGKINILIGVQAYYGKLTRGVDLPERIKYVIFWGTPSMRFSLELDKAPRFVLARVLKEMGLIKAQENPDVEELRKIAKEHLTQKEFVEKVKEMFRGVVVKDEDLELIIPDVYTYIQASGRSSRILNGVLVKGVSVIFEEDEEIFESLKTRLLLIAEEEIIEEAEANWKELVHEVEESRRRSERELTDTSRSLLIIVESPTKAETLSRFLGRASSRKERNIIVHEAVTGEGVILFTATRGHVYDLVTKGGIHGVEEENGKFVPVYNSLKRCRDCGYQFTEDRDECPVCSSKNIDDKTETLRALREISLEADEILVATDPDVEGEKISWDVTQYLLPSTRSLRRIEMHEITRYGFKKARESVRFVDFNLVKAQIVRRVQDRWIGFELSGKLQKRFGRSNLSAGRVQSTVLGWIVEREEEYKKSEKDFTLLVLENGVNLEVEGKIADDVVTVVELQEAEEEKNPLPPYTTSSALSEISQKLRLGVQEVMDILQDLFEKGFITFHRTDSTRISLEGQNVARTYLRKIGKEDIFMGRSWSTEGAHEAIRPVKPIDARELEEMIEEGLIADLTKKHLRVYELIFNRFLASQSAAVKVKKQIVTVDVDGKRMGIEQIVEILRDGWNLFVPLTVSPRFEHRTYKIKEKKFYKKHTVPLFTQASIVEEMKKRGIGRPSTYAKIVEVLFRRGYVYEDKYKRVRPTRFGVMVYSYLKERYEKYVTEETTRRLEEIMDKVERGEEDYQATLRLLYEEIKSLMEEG

| Kd (rGyr_fl) [µM] | Kd (rGyr_hel [1]) [µM] | Kd (rGyr_hel [2]) [µM] | SMILES |
| --- | --- | --- | --- |
| 36 ± 5 | 150 ± 85 |  | Nc1ncnc2c1ncn2[C@@H]1O[C@H](COP(=O)(O)OP(=O)(O)O)[C@@H](O)[C@H]1O [ADP] |
|  |  | 1600 ± 231 | Nc1ncnc2c1ncn2[C@@H]1O[C@H](COP(=O)(O)O)[C@@H](O)[C@H]1O [AMP] |
| 98 ± 12 | 570 ± 300 |  | Nc1ncnc2c1ncn2[C@@H]1O[C@H](COP(=O)(O)OP(=O)(O)OP(=O)(O)O)[C@@H](O)[C@H]1O [ATP] |
